In patent publication US20240287007A1, “N-(1,3,4-OXADIAZOL-2-YL)PHENYLCARBOXAMIDES AS HERBICIDES” (BAYER AKTIENGESELLSCHAFT, priority 2021, published 2024):

Legend:
Type in all cases: in vivo
AVEFA (Avena fatua) [1] = test: Pre-emergence herbicidal effect against AVEFA; conditions: 80 g/ha, scored visually after 3 weeks
Description: (§1) Seeds of monocotyledonous and dicotyledonous weed plants and crop plants are laid out in sandy loam soil in wood-fiber pots and covered with soil. The compounds of the invention, formulated in the form of wettable powders (WP) or as emulsion concentrates (EC), are then applied to the surface of the covering soil as aqueous suspension or emulsion at a water application rate equating to 600 to 800 l/ha with addition of 0.2% wetting agent. After the treatment, the pots are placed in a greenhouse and kept under good growth conditions for the trial plants. The damage to the test plants is scored visually after a test period of 3 weeks by comparison with untreated controls (herbicidal activity in percent (%): 100% activity=the plants have died, 0% activity=like control plants).

KCHSC (Kochia scoparia) [2] = test: Pre-emergence herbicidal effect against KCHSC; conditions: scored visually after 3 weeks
Description: as §1

[3] = tested on: ECHCG (Echinochloa crus-galli); test: Post-emergence herbicidal action against ECHCG; conditions: visual assessment after about 3 weeks
Experimental: (§2) Seeds of monocotyledonous and dicotyledonous weed and crop plants are laid out in sandy loam soil in wood-fiber pots, covered with soil and cultivated in a greenhouse under good growth conditions. 2 to 3 weeks after sowing, the trial plants are treated at the one-leaf stage. The compounds of the invention, formulated in the form of wettable powders (WP) or as emulsion concentrates (EC), are then sprayed onto the green parts of the plants as aqueous suspension or emulsion at a water application rate equating to 600 to 800 l/ha with addition of 0.2% wetting agent. After the test plants have been left to stand in the greenhouse under optimal growth conditions for about 3 weeks, the action of the preparations is assessed visually in comparison to untreated controls (herbicidal action in percent (%): 100% activity=the plants have died, 0% activity=like control plants).

[4] = tested on: MATIN (Matricaria inodora); test: Post-emergence herbicidal action against MATIN; conditions: visual assessment after about 3 weeks
Experimental: as §2

[5] = tested on: ABUTH (Abutylon threophrasti); test: Post-emergence herbicidal action against ABUTH; conditions: visual assessment after about 3 weeks
Experimental: as §2

[6] = tested on: MATIN (Matricaria inodora); test: Pre-emergence herbicidal effect against MATIN; conditions: scored visually after 3 weeks
Description: as §1

SETVI (Setaria viridis) [7] = test: Post-emergence herbicidal action against SETVI; conditions: visual assessment after about 3 weeks
Experimental: as §2

VERPE (Veronica persica) [8] = test: Post-emergence herbicidal action against VERPE; conditions: visual assessment after about 3 weeks
Experimental: as §2

[9] = tested on: ECHCG (Echinochloa crus-galli); test: Pre-emergence herbicidal effect against ECHCG; conditions: scored visually after 3 weeks
Description: as §1

VIOTR (Viola tricolor) [10] = test: Post-emergence herbicidal action against VIOTR; conditions: visual assessment after about 3 weeks
Experimental: as §2

[11] = tested on: DIGSA (Digitaria sanguinalis); test: Pre-emergence herbicidal effect against DIGSA; conditions: scored visually after 3 weeks
Description: as §1

KCHSC (Kochia scoparia) [12] = test: Post-emergence herbicidal action against KCHSC; conditions: visual assessment after about 3 weeks
Experimental: as §2

LOLRI (Lolium rigidum) = test: Post-emergence herbicidal action against LOLRI; conditions: visual assessment after about 3 weeks
Experimental: as §2

[13] = tested on: PHBPU (Pharbitis purpurea); test: Post-emergence herbicidal action against PHBPU; conditions: 80 g/ha, visual assessment after about 3 weeks
Experimental: as §2

AVEFA (Avena fatua) [14] = test: Post-emergence herbicidal action against AVEFA; conditions: visual assessment after about 3 weeks
Experimental: as §2

[15] = tested on: ALOMY (Alopecurus myosuroides); test: Pre-emergence herbicidal effect against ALOMY; conditions: 80 g/ha, scored visually after 3 weeks
Description: as §1

[16] = tested on: POLCO (Polygonum convolvulus); test: Pre-emergence herbicidal effect against POLCO; conditions: 80 g/ha, scored visually after 3 weeks
Description: as §1

[17] = tested on: ABUTH (Abutylon threophrasti); test: Pre-emergence herbicidal effect against ABUTH; conditions: scored visually after 3 weeks
Description: as §1

[18] = tested on: POLCO (Polygonum convolvulus); test: Post-emergence herbicidal action against POLCO; conditions: 80 g/ha, visual assessment after about 3 weeks
Experimental: as §2

[19] = tested on: AMARE (Amaranthus retroflexus); test: Pre-emergence herbicidal effect against AMARE; conditions: scored visually after 3 weeks
Description: as §1

[20] = tested on: AMARE (Amaranthus retroflexus); test: Post-emergence herbicidal action against AMARE; conditions: visual assessment after about 3 weeks
Experimental: as §2

VIOTR (Viola tricolor) [21] = test: Pre-emergence herbicidal effect against VIOTR; conditions: scored visually after 3 weeks
Description: as §1

SETVI (Setaria viridis) [22] = test: Pre-emergence herbicidal effect against SETVI; conditions: scored visually after 3 weeks
Description: as §1

VERPE (Veronica persica) [23] = test: Pre-emergence herbicidal effect against VERPE; conditions: scored visually after 3 weeks
Description: as §1

[24] = tested on: PHBPU (Pharbitis purpurea); test: Pre-emergence herbicidal effect against PHBPU; conditions: 80 g/ha, scored visually after 3 weeks
Description: as §1

[25] = tested on: DIGSA (Digitaria sanguinalis); test: Post-emergence herbicidal action against DIGSA; conditions: visual assessment after about 3 weeks
Experimental: as §2

C[S+]([O-])c1c(OC(F)F)ccc(C(=O)Nc2nnco2)c1Cl (racemic) [Example 1-22]
Pre-emergence effect at 80 g/ha against A VEFA in % (AVEFA (Avena fatua) [1]): 80% | Pre-emergence effect at 20 g/ha against KCHSC in % (KCHSC (Kochia scoparia) [2]; 20 g/ha): 100% | Pre-emergence effect at 80 g/ha against KCHSC in % (KCHSC (Kochia scoparia) [2]; 80 g/ha): 100% | Post-emergence effect at 20 g/ha against ECHCG in % ([3]; 20 g/ha): 100% | Post-emergence effect at 80 g/ha against ECHCG in % ([3]; 80 g/ha): 100% | Post-emergence effect at 20 g/ha against MATIN in % ([4]; 20 g/ha): 100% | Post-emergence effect at 80 g/ha against MATIN in % ([4]; 80 g/ha): 100% | Post-emergence effect at 20 g/ha against ABUTH in % ([5]; 20 g/ha): 100% | Post-emergence effect at 80 g/ha against ABUTH in % ([5]; 80 g/ha): 100% | Pre-emergence effect at 20 g/ha against MATIN in % ([6]; 20 g/ha): 100% | Pre-emergence effect at 80 g/ha against MATIN in % ([6]; 80 g/ha): 100% | Post-emergence effect at 20 g/ha against SETVI in % (SETVI (Setaria viridis) [7]; 20 g/ha): 100% | Post-emergence effect at 80 g/ha against SETVI in % (SETVI (Setaria viridis) [7]; 80 g/ha): 100% | Post-emergence effect at 20 g/ha against VERPE in % (VERPE (Veronica persica) [8]; 20 g/ha): 90% | Post-emergence effect at 80 g/ha against VERPE in % (VERPE (Veronica persica) [8]; 80 g/ha): 100% | Pre-emergence effect at 20 g/ha against ECHCG in % ([9]; 20 g/ha): 90% | Pre-emergence effect at 80 g/ha against ECHCG in % ([9]; 80 g/ha): 100% | Post-emergence effect at 20 g/ha against VIOTR in % (VIOTR (Viola tricolor) [10]; 20 g/ha): 100% | Post-emergence effect at 80 g/ha against VIOTR in % (VIOTR (Viola tricolor) [10]; 80 g/ha): 100% | Pre-emergence effect at 20 g/ha against DIGSA in % ([11]; 20 g/ha): 100% | Pre-emergence effect at 80 g/ha against DIGSA in % ([11]; 80 g/ha): 100% | Post-emergence effect at 20 g/ha against KCHSC in % (KCHSC (Kochia scoparia) [12]; 20 g/ha): 100% | Post-emergence effect at 80 g/ha against KCHSC in % (KCHSC (Kochia scoparia) [12]; 80 g/ha): 100% | Post-emergence effect at 80 g/ha against LOLRI in % (LOLRI (Lolium rigidum)): 90% | Post-emergence effect at 80 g/ha against PHBPU in % [13]: 100% | Post-emergence effect at 20 g/ha against A VEFA in % (AVEFA (Avena fatua) [14]; 20 g/ha): 90% | Post-emergence effect at 80 g/ha against AVEFA in % (AVEFA (Avena fatua) [14]; 80 g/ha): 100% | Pre-emergence effect at 80 g/ha against ALOMY in % [15]: 80% | Pre-emergence effect at 80 g/ha against POLCO in % [16]: 90% | Pre-emergence effect at 20 g/ha against ABUTH in % ([17]; 20 g/ha): 80% | Pre-emergence effect at 80 g/ha against ABUTH in % ([17]; 80 g/ha): 100% | Post-emergence effect at 80 g/ha against POLCO in % [18]: 90% | Pre-emergence effect at 20 g/ha against AMARE in % ([19]; 20 g/ha): 100% | Pre-emergence effect at 80 g/ha against AMARE in % ([19]; 80 g/ha): 100% | Post-emergence effect at 20 g/ha against AMARE in % ([20]; 20 g/ha): 100% | Post-emergence effect at 80 g/ha against AMARE in % ([20]; 80 g/ha): 100% | Pre-emergence effect at 20 g/ha against VIOTR in % (VIOTR (Viola tricolor) [21]; 20 g/ha): 100% | Pre-emergence effect at 80 g/ha against VIOTR in % (VIOTR (Viola tricolor) [21]; 80 g/ha): 100% | Pre-emergence effect at 20 g/ha against SETVI in % (SETVI (Setaria viridis) [22]; 20 g/ha): 90% | Pre-emergence effect at 80 g/ha against SETVI in % (SETVI (Setaria viridis) [22]; 80 g/ha): 100% | Pre-emergence effect at 20 g/ha against VERPE in % (VERPE (Veronica persica) [23]; 20 g/ha): 80% | Pre-emergence effect at 80 g/ha against VERPE in % (VERPE (Veronica persica) [23]; 80 g/ha): 90% | Pre-emergence effect at 80 g/ha against PHBPU in % [24]: 80% | Post-emergence effect at 20 g/ha against DIGSA in % ([25]; 20 g/ha): 100% | Post-emergence effect at 80 g/ha against DIGSA in % ([25]; 80 g/ha): 100%
